Publication PMC5656517 (European journal of pharmaceutical sciences : official …, 2017)

What was measured:
[1] = system: one or more cytochrome P450 enzymes (CYP1A2, 2A6, 2B6, 2C8, 2C9, 2C19, 2D6, 2E1, 3A4); isoform not specified per value; test: in vitro; settings: human, pH 7.4
[2] = target: T1, CYP2B6 (Homo sapiens, UniProt P20813); test: Single concentration; assay type: in vitro ADME; settings: human liver microsomes
T1 sequence (P20813 1-491): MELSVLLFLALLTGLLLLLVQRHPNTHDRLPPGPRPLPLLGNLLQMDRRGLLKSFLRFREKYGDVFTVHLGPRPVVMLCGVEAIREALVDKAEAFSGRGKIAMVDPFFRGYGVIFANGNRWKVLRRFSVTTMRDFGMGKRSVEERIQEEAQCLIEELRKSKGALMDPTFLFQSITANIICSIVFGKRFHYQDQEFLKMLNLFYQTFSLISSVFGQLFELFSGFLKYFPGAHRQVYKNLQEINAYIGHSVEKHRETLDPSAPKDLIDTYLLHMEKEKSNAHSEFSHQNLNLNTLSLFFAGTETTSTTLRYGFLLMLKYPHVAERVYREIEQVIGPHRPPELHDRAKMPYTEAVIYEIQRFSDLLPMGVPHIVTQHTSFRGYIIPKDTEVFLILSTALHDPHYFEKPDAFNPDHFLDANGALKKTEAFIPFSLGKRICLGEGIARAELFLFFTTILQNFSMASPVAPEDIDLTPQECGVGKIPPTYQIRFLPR

[3] = target: T2, CYP3A4 (Homo sapiens, UniProt P08684)
T2 sequence (P08684 whole entry): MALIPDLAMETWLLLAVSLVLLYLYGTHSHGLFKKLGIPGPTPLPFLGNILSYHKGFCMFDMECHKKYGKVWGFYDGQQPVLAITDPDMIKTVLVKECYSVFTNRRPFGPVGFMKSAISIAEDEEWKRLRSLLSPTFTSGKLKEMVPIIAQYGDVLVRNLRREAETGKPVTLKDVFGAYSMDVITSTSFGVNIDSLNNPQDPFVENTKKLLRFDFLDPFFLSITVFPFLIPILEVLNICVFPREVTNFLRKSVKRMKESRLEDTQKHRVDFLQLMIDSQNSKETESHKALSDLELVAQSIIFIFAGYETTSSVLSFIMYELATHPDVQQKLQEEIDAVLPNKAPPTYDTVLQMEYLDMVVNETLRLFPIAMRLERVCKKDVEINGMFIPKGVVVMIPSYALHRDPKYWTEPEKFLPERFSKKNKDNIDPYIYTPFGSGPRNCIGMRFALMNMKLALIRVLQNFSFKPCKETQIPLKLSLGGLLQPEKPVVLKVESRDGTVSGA

[4] = target: T2, CYP3A4; settings: recombinant enzymes; ref Kent et al., (2002); cited from earlier work
[5] = target: T1, CYP2B6; settings: recombinant enzymes; ref Kent et al., (2002); cited from earlier work
[6] = target: CYP2C9 (Homo sapiens, UniProt P11712); settings: recombinant enzymes; ref Kent et al., (2002); cited from earlier work
Sequence of CYP2C9 (P11712 whole entry): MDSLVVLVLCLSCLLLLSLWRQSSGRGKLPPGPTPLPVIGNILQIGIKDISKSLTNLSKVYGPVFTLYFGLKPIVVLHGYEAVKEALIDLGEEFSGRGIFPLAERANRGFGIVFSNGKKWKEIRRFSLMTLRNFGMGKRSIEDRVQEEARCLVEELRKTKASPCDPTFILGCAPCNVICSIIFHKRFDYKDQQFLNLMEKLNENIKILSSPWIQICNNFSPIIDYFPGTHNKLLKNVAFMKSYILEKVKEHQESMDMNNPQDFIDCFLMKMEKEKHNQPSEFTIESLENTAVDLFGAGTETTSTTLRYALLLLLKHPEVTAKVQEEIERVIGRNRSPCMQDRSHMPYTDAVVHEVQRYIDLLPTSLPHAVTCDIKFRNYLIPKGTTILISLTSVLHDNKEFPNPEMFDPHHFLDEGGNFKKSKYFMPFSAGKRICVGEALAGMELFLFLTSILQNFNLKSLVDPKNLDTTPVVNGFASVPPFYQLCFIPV

[7] = target: CYP2D6 (Homo sapiens, UniProt P10635); test: Single concentration; assay type: in vitro ADME; settings: human liver microsomes
Sequence of CYP2D6 (P10635 whole entry): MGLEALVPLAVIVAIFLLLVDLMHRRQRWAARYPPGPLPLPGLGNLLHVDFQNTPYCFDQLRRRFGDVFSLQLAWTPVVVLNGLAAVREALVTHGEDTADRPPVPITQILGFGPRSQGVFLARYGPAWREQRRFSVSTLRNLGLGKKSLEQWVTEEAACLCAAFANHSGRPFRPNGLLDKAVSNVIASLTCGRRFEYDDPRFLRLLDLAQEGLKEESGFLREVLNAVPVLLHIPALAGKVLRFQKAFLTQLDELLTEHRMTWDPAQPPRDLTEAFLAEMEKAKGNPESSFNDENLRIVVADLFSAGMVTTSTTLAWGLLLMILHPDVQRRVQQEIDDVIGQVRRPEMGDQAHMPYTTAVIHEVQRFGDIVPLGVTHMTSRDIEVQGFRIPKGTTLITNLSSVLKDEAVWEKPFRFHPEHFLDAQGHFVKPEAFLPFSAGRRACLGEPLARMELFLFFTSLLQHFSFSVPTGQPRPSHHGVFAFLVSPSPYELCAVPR

[8] = system: CYP2C; test: Single concentration; assay type: in vitro ADME; settings: human liver microsomes
[9] = system: cytochrome P450 enzymes; test: Single concentration; settings: 10 µM, 9 isoforms

| Compound | inhibition at 10 min, 10 µM [1] [%] | inhibition of CYP2B6 at 10 µM, in words [2] | mode of CYP3A4 inhibition, in words [3] | inhibition of any cytochrome P450 enzyme, in words [9] | also measured |
| --- | --- | --- | --- | --- | --- |
| CC1(C)[C@@H](O)CC[C@]2(C)[C@H]3C(=O)C=C4[C@@H]5C[C@@](C)(C(=O)O)CC[C@]5(C)CC[C@@]4(C)[C@]3(C)CC[C@@H]12 [18β-glycyrrhetinic acid] | > 50 | – | – | – | – |
| CC1(C)C=Cc2c(ccc3c2OC[C@@H](c2ccc(O)cc2O)C3)O1 [Glabridin, glabridin] | > 50 | not inhibition | competitively inhibited | – | inhibition of CYP3A4, in words [4]: irreversibly inhibited; inhibition of CYP2B6, in words [5]: irreversibly inhibited; inhibition of CYP2C9, in words [6]: reversibly inhibited |
| COc1c(CC=C(C)C)c(O)cc2oc(=O)c(-c3ccc(O)cc3O)cc12 [Glycycoumarin, glycycoumarin] | > 50 | inhibited | – | – | inhibition of CYP2D6 at 10 µM, in words [7]: did not observe significant inhibition; inhibition of CYP2C at 10 µM, in words [8]: inhibited |
| O=C(/C=C/c1ccc(O)cc1)c1ccc(O)cc1O [Isoliquiritigenin, isoliquiritigenin] | – | – | competitively inhibited | – | – |
| O=C(/C=C/c1ccc(O[C@@H]2O[C@H](CO)[C@@H](O)[C@H](O)[C@H]2O)cc1)c1ccc(O)cc1O [Isoliquiritin, isoliquiritin] | – | – | – | did not inhibit | – |
| COc1c(CC=C(C)C)c(O)cc2c1C[C@H](c1ccc(O)c(CC=C(C)C)c1O)CO2 [Licoricidin, licoricidin] | > 50 | inhibited | competitively inhibited | – | – |
| isoliquiritin apioside | – | – | – | did not inhibit | – |
| liquiritin apioside | – | – | – | did not inhibit | – |
